The numbers were not newly measured in patent US12100485B2, “Machine learning and molecular simulation based methods for enhancing binding and activity prediction” (The Board of Trustees of the Leland Stanford Junior …, priority 2018, dated 2024), which cites them from elsewhere.

For the first data set, the system named is μOR.
Conditions: not given
In the case of `Cc1ccc(/C=C/C(=O)N[C@@]23CCC(=O)[C@@H]4Oc5c(O)ccc6c5[C@@]42CCN(CC2CC2)[C@@H]3C6)cc1` [methocinnamox], the Action entry was “antagonist”.
In the case of `CC1=CC[C@H]2[C@H]3Cc4ccc(O)c5c4[C@@]2(CCN3C)[C@H]1O5` [methyldesorphine], the Action entry was “agonist”.
Take `COc1ccc2c3c1O[C@H]1[C@@H](O)CC[C@H]4[C@@H](C2)N(C)CC[C@@]341` [methyldihydromorphine]: the Action entry is given as “agonist”.
As to `C[N@+]1(CC2CC2)CC[C@]23CC(=O)CC[C@@]2(O)[C@H]1Cc1ccc(C(N)=O)c(O)c13` [methylsamidorphan], the Action result is “antagonist”.
For `CN1CC[C@]23c4c5ccc(O)c4O[C@@]2(C)C(=O)CC[C@H]3[C@H]1C5` [metopon], the Action result is on record as “agonist”.
Take `CC[C@@H]1CN2CC[C@]3(Nc4cccc(OC)c4C3=O)[C@@H]2C[C@@H]1/C(=C\OC)C(=O)OC` [mitragynine_pseudoindoxyl]: the Action result is “agonist”.
For the compound `CCOC(=O)C1(c2ccccc2)CCN(CCN2CCOCC2)CC1` [morpheridine], the Action entry is “agonist”.
Take `CN1CC[C@]23c4c5ccc(O)c4O[C@H]2[C@@H](O[C@@H]2O[C@H](C(=O)O)[C@@H](O)[C@H](O)[C@H]2O)C=C[C@H]3[C@H]1C5` [morphine-6-glucuronide]: the Action result is recorded as “agonist”.
As to `CN1CC[C@]23c4c5ccc(O)c4O[C@H]2[C@@H](O)C=C[C@H]3[C@H]1C5` [morphine], the Action entry was “agonist”.
For the compound `CN1CC[C@]23c4c5ccc(O)c4O[C@H]2C(=O)C=C[C@H]3[C@H]1C5` [morphinone], the Action entry is on record as “agonist”.
`Oc1ccc2c3c1O[C@H]1[C@@H](O)C=C[C@H]4[C@@H](C2)N(CCc2ccccc2)CC[C@@]341` [n-phenethylnormorphine]: the Action entry is listed as “agonist”.
In the case of `C=CCN1CC[C@]23c4c5ccc(O)c4O[C@H]2/C(=N\N)CC[C@@]3(O)[C@H]1C5` [naloxazone], the Action entry is recorded as “Antagonists”.
Consider `C=CCN1CC[C@]23c4c5ccc(O)c4O[C@H]2[C@@H](OCCOCCOCCOCCOCCOCCOCCOC)CC[C@@]3(O)[C@H]1C5` [naloxegol], for which the Action result was “Antagonists”.
As for `C=CCN1CC[C@]23c4c5ccc(O)c4O[C@H]2/C(=N/N=C2\CC[C@@]4(O)[C@H]6Cc7ccc(O)c8c7[C@@]4(CCN6CC=C)[C@H]2O8)CC[C@@]3(O)[C@H]1C5` [naloxonazine], the Action entry is listed as “Antagonists”.
For the compound `N/N=C1/CC[C@@]2(O)[C@H]3Cc4ccc(O)c5c4[C@@]2(CCN3CC2CC2)[C@H]1O5` [naltrexazone], the Action result is listed as “Antagonists”.
Consider `CCC(OC(C)=O)C(CC(C)NC)(c1ccccc1)c1ccccc1` (stereo not drawn) [noracymethadol], for which the Action result is recorded as “agonist”.
`COc1ccsc1CNCC[C@@]1(c2ccccn2)CCOC2(CCCC2)C1` [oliceridine]: the Action entry is listed as “agonist”.
Turning to `Oc1ccc2c(c1)[C@@]13CCCC[C@@]1(O)[C@@H](C2)N(CC1CC1)CC3` [oxilorphan], the Action result is given as “Antagonists”.
Take `CCOC(=O)C1(c2ccccc2)CCN(CC(O)c2ccccc2)CC1` (stereo not drawn) [oxpheneridine]: the Action entry is “agonist”.
`CN1CC[C@]23c4c5ccc(O)c4O[C@H]2/C(=N\N)CC[C@@]3(O)[C@H]1C5` [oxymorphazone]: the Action entry is given as “agonist”.
Regarding `CN1CC[C@]23c4c5ccc(O)c4O[C@H]2C(=O)CC[C@@]3(O)[C@H]1C5` [oxymorphone], the Action entry is recorded as “agonist”.
Take `CCCCCN[C@@]12C=CC(=O)[C@@H]3Oc4c(O)ccc5c4[C@@]31CCN(C)[C@@H]2C5` [pentamorphone]: the Action entry is listed as “agonist”.
Consider `CC(=O)OC1(c2ccccc2)CCN(CCc2ccccc2)CC1` [pepap], for which the Action entry was “agonist”.
On to `CCOC(=O)C1(c2ccccc2)CCN(C)CC1` [pethidine], for which the Action result is “agonist”.
Take `CCC(=O)C(CC(C)N1CCOCC1)(c1ccccc1)c1ccccc1` (stereo not drawn) [phenadoxone]: the Action result is “agonist”.
For `CC1C2Cc3ccc(O)cc3C1(C)CCN2CCc1ccccc1` (stereo not drawn) [phenazocine], the Action result is given as “agonist”.
In the case of `CCOC(=O)C1(c2ccccc2)CCN(CCc2ccccc2)CC1` [pheneridine], the Action entry is recorded as “agonist”.
As to `Oc1ccc2c(c1)[C@@]13CCCC[C@H]1[C@@H](C2)N(CCc1ccccc1)CC3` [phenomorphan], the Action result is on record as “agonist”.
Take `CCOC(=O)C1(c2ccccc2)CCN(CCC(O)c2ccccc2)CC1` (stereo not drawn) [phenoperidine]: the Action entry is “agonist”.
On to `CCOC(=O)C1(c2ccccc2)CCN(CCCNc2ccccc2)CC1` [piminodine], for which the Action entry is listed as “agonist”.
With `N#CC(CCN1CCC(C(N)=O)(N2CCCCC2)CC1)(c1ccccc1)c1ccccc1` [piritramide], the Action result was “agonist”.
As to `CCC(=O)OC1(c2ccccc2)CCN(C)C1C` (stereo not drawn) [prodilidine], the Action result is “agonist”.
For the compound `CCC(=O)OC1(c2ccccc2)CCCN(C)CC1C` (stereo not drawn) [proheptazine], the Action entry is reported as “agonist”.
With `CC(C)OC(=O)C1(c2ccccc2)CCN(C)CC1` [properidine], the Action result is “agonist”.
With `CN1CC[C@]2(C)c3cc(O)ccc3C[C@H]1C2(C)CCC(=O)CCC1CCCC1` (stereo partly drawn) [quadazocine], the Action result is “Antagonists”.
Regarding `CN1CCC23CCCCC2C1Cc1ccc(O)cc13` (stereo not drawn) [racemorphan], the Action entry was “agonist”.
As to `NC(=O)c1ccc2c(c1O)[C@]13CCN(CC4CC4)[C@H](C2)[C@]1(O)CCC(=O)C3` [samidorphan], the Action entry is recorded as “Antagonists”.
Turning to `COCCN1CC[C@]23c4c5ccc(O)c4O[C@H]2C(=O)CC[C@@]3(O)[C@H]1C5` [semorphone], the Action entry was “agonist”.
For the compound `CCOC(=O)C1(c2ccccc2)CCC=CC1N(C)C` (stereo not drawn) [tilidine], the Action entry is listed as “agonist”.
On to `CCC(=O)OC1(c2ccccc2)CC(C)N(C)CC1C` (stereo not drawn) [trimeperidine], for which the Action result was “agonist”.
For endomorphin, the Action entry is “agonist”.
Consider endomorphin-1, for which the Action result is on record as “agonist”.
As for endomorphin-2, the Action result is recorded as “agonist”.
With hemorphin-4, the Action result is “agonist”.

The same data set, now with this note: known pharmacology, training dataset.
With `C[N@+]1(CC2CC2)CC[C@]23c4c5ccc(O)c4O[C@H]2C(=O)CC[C@@]3(O)[C@H]1C5` [methylnaltrexone], the Action result is “antagonist”.
Regarding `C=C1CC[C@@]2(O)[C@H]3Cc4ccc(O)c5c4[C@@]2(CCN3CC2CC2)[C@H]1O5` [nalmefene], the Action entry is “Antagonists”.
On to `C=CCN1CC[C@]23c4c5ccc(O)c4O[C@H]2C(=O)CC[C@@]3(O)[C@H]1C5` [naloxone], for which the Action entry is “Antagonists”.
Turning to `O=C1CC[C@@]2(O)[C@H]3Cc4ccc(O)c5c4[C@@]2(CCN3CC2CC2)[C@H]1O5` [naltrexone], the Action entry is “Antagonists”.
